# According to patent publication US9642874B2, “Compositions of selenoorganic compounds and methods of use thereof” (Alltech, Inc., priority 2014, dated 2017):
# Assays:
# AKT = test: Western blot of phosphorylated Akt in primary mouse hepatocytes; assay type: cell-based; conditions: 100 nM insulin 6 hours, or Compounds CDE both doses 24 hours + 6 hours
# Protocol: The overnight-acclimated hepatocytes were washed twice with PBS (to remove any residual FBS and other additives in the TRL hepatocyte maintenance medium, pretreated with control (water) or selenium Compounds CDE (150 or 300 ppb of each selenium compound) in DMEM/F12 media supplemented with 10% fetal bovine serum (FBS) for 24 hr. These cells were then washed twice with PBS and incubated with the same dose of selenium Compounds CDE (150 or 300 ppb) in the presence or absence of insulin (10 or 100 nM, Sigma), 0.1 mM 8-CPT (Sigma) or 0.5 μM Dex (Sigma) in serum-free and glucose-free DMEM media (Invitrogen) supplemented with 20 mM lactose (Sigma) and 2 mM pyruvate (Sigma) and 15 mM HEPES (Sigma) for another 6 hours. […]
# After the above described treatments, primary mouse hepatocytes were rinsed with ice-cold PBS and lysed in the ice-cold RIPA buffer containing complete proteinase and phosphatase inhibitors (Thermo-Fisher Scientific, Waltham, Mass.) on ice for 30 min Cell lysates were collected using a cell scraper and transfer pipette and then centrifuged at 12000×g for 30 min at 4° C. to remove the DNA pellet and obtain the protein extract. Protein levels in the supernatant of these cell lysates were determined using the Pierce Micro-BCA protein assay kit (Thermo Scientific-Piece Biotechnology, Rockford, Ill.) according to the manufacturer's protocol. […]
# Insr = Insr mRNA expression (QRT-PCR) in AML-12 cells; assay type: cell-based, mouse; conditions: insulin alone, 6 hours, without 8-CPT/Dex
# Protocol: (§1) For RNA analysis of insulin receptor (Insr), insulin like growth factor receptor (Igf1r), and Glucose-6-Phosphatase (G6pc), AML-12 cells were amplified in ITS, Dex and FBS-containing DMEM/F12 media, and cultured on 24-well (6.7×10^4 cells/well) plates in 10% FBS ITS-free DMEM/F12 media with or without Dex overnight. These cells were treated with control (water) or various compounds (diluted in 10% FBS ITS-free DMEM/F12 media with or without Dex) for 6 hours, 24 hours, or 48 hours.
# (§2) In some experiments, the AML-12 cells were washed twice with PBS after the compound treatments for 24 hours, and then incubated with selenium compounds (150 or 300 ppb of each compound) in the presence or absence of insulin (10 or 100 nM), 0.1 mM 8-CPT (Sigma), or 0.5 μM Dex in serum-free, glucose/phenol red-free DMEM media supplemented with 20 mM lactose and 2 mM pyruvate, and 15 mM HEPES (glucose-production media) for another 6 hours. After treatments, cell media were collected and subjected to glucose assays using Abcam glucose assay kit according to the manufacturer's protocol. […]
# (§3) Total RNA from these cells was isolated using Trizol (Invitrogen) according to the manufacturer's protocol, and then incubated with DNase I to remove any potential contaminated genomic DNA. […] Three to six samples were analyzed in each treatment group. […]
# Igf1r = Igf1r mRNA expression (QRT-PCR) in AML-12 cells; assay type: cell-based, mouse; conditions: insulin alone, 6 hours, without 8-CPT/Dex
# Protocol: as §1, §2, §3
substance,measurement,setting,value
"insulin: insulin (10 or 100 nM, Sigma) used as comparator and cotreatment",pAktS473 protein level (in words),AKT,significant increase
same,Insr expression,Insr,did not increase
same,Igf1r expression,Igf1r,did not increase
